Where no end group is shown, it is not given here.
Columns and labels:
[1] = tested on: dorsal part of a guinea pig; test: Depilation inducing effects of endothelin, intracutaneous administration; format: in vivo; conditions: 0.3 μg intracutaneously, 50 μL/site, 10 days after the administration
Method: (§1) A solution of endothelin-1 (0.3 μg) in phosphate buffer solution (PBS), which contained 0.1% of bovine serum albumin (BSA), was intracutaneously administered (at 50 μL/site) to the dorsal part of a guinea pig.

[2] = tested on: growth-phase hair follicles; test: Growth-phase hair follicle inhibitory effects of endothelin, count of hair shafts; format: in vivo, guinea pig; conditions: 1 μg intracutaneously, 50 μL/site, fifth day after the administration
Method: Solutions (1 μg, each) of endothelin-1, endothelin-2 and endotherin-3 in aliquots of phosphate buffer solution (PBS), which contained 0.1% of bovine serum albumin (BSA), were intracutaneously administered (at 50 μL/site) to the dorsal parts of guinea pigs, respectively, from which hair had been cut off by a hair clipper. Three days after the administration, hair was again cut off by a hair clipper from the administered sites. Two days after the cutting, the numbers of hair shafts grown per unit area at the administered sites were counted.

[3] = tested on: growth-phase hair follicle; test: Structural changes of hair follicle structure by the administration of endothelin, hematoxylin-eosin staining; format: in vivo, guinea pig; conditions: 0.3 μg intracutaneously
Method: as §1, with “1.1%” for “0.1%”, “pig. After that, samples were collected day after day from the administered dorsal skin, and tissue samples were prepared by hematoxylin-eosin staining.” for “pig.”

[4] = tested on: endothelin-induced depilation spot; test: Concurrent administration of endothelin inhibitor on the endothelin-induced formation of depilation spot; format: in vivo, guinea pig; conditions: 10 days after the administration; endothelin-1 0.3 μg, PD142893 10 μg, intracutaneous
Method: As described in Example 1, endothelin (0.3 μg) was intracutaneously administered to the dorsal part of each guinea pig, and PD142893 (10 μg) as an endothelin inhibitor was also administered concurrently.
The size of a depilation spot formed 10 days after the administration was determined in terms of a product of its long diameter and short diameter.

[5] = tested on: hair follicle organs in growth phase from a human scalp tissue; test: Growth inhibitory effects on organ-cultured hair follicles; format: cell-based
Method: From a human scalp tissue, hair follicle organs in growth phase were surgically isolated under a stereomicroscope. Following a conventional procedure [Philpott M. P., et al., J. Cell Sci., 97, 463-471 (1990)], the isolated hair follicles were subjected to organ culture. Described specifically, endothelin-1 was added to William's E medium which contained L-glutamine (2 mM), hydrocortisone (10 ng/mL), insulin (10 μg/mL), sodium selenite (10 ng/mL) and transferrin (10 μg/mL).

C3H/HeNCrj mouse = test: Hair growth test in mice; format: in vivo; conditions: 0.5 mg in 2.5 mL PEG 400/PEG 3350 (95/5), 25 μL/application once a day over 2 weeks, applied to depilated dorsal skin
Method: Endothelin-1 (0.5 mg) was dissolved in a mixed solution (2.5 mL) of polyethylene glycol 400 (average molecular weight: 400) and polyethylene glycol 3350 (average molecular weight: 3,350) (mixing ratio: 95/5) to prepare a hair growth inhibitor. Dorsal hair of each 8-week old C3H/HeNCrj mouse was removed with a depilatory cream (over an area of 2×4 cm^2), and the hair growth inhibitor was applied to the depilated site once a day at a dose of 25 μL/application over 2 weeks. A group in which only the solvent was similarly applied was employed as a control group. To observe regrowth of hair, the above-described depilated site on day 14 after the depilation was photographed at a predetermined fixed magnification, and the percentage of a regrown hair area (regrown hair area/depilated area×100) was determined using an image analyzer.

Compound | observation at the administered site (depilation) [1] | number of hair shafts grown per unit area at the administered site [2] | histological image of hair follicle ([3]; 1st day after the administration) | histological image of hair follicle ([3]; 3rd day after the administration) | Product of long diameter and short diameter of depilation spot (mean ± S.D., N = 6) [4] [mm^2] | percent regression of growth-phase hair follicles ([5]; 10 ng/mL added endothelin, Day 1 of incubation) [%] | percent regression of growth-phase hair follicles ([5]; 10 ng/mL added endothelin, Day 2 of incubation) [%] | percent regression of growth-phase hair follicles ([5]; 10 ng/mL added endothelin, Day 4 of incubation) [%] | percent regression of growth-phase hair follicles ([5]; 10 ng/mL added endothelin, Day 6 of incubation) [%] | percent regression of growth-phase hair follicles ([5]; 100 ng/mL added endothelin, Day 1 of incubation) [%] | percent regression of growth-phase hair follicles ([5]; 100 ng/mL added endothelin, Day 2 of incubation) [%] | percent regression of growth-phase hair follicles ([5]; 100 ng/mL added endothelin, Day 4 of incubation) [%] | percent regression of growth-phase hair follicles ([5]; 100 ng/mL added endothelin, Day 6 of incubation) [%] | grown hair follicle lengths compared with control group ([5]; day 4 of incubation and the subsequent days (FIG. 3)) | structural change of incubated hair follicles ([5]; during the incubation period (FIG. 4)) | Percentage of regrown hair area on day 14 after depilation (C3H/HeNCrj mouse) [%]
CC[C@H](C)[C@H](NC(=O)[C@H](CC(=O)O)NC(=O)[C@H](CC(C)C)NC(=O)[C@H](Cc1c[nH]cn1)NC(=O)[C@@H]1CSSC[C@H](N)C(=O)N[C@@H](CO)C(=O)N[C@H]2CSSC[C@H](NC(=O)[C@H](CCC(=O)O)NC(=O)[C@H](CCCCN)NC(=O)[C@H](CC(=O)O)NC(=O)[C@H](CCSC)NC(=O)[C@H](CC(C)C)NC(=O)[C@H](CO)NC(=O)[C@H](CO)NC2=O)C(=O)N[C@@H](C(C)C)C(=O)N[C@@H](Cc2ccc(O)cc2)C(=O)N[C@@H](Cc2ccccc2)C(=O)N1)C(=O)N[C@H](C(=O)N[C@@H](Cc1c[nH]c2ccccc12)C(=O)O)[C@@H](C)CC [Endothelin-1, endothelin-1] | hair shaft falling-off and formation of a marked depilation spot | significant (p<0.01) decrease in the number of hair shafts | regressed image of a growth-phase hair follicle | image of a follicular tissue in transition phase | 81.47 ± 6.53 | 0.0 | 0.0 | 17.6 | 35.3 | 0.0 | 0.0 | 23.5 | 41.2 | significant hair growth inhibitory effects | structural change of the endothelin-treated, growth-phase hair follicles into those similar to resting-phase hair follicles | 2.22
endothelin-2 (CSCSSWLDKECVYFCHLDIIW; ends and bridges not checked; cysteine pairing not given here; UniProt P20800 49-69, looked up) [peptide composed of 21 amino acid residues; isoform of endothelin] | – | significant (p<0.01) decrease in the number of hair shafts | – | – | – | – | – | – | – | – | – | – | – | – | – | –
endothelin-3 (CTCFTYKDKECVYYCHLDIIW; ends and bridges not checked; cysteine pairing not given here; UniProt P14138 97-117, looked up) [endotherin-3, peptide composed of 21 amino acid residues; isoform of endothelin] | – | significant (p<0.01) decrease in the number of hair shafts | – | – | – | – | – | – | – | – | – | – | – | – | – | –

Reference: US7468421B2, “Depilatories and agents for external use” (Kao Corporation, priority 1999, dated 2008)
